Measured values: patent publication US20250388589A1, “TRICYCLIC HETEROCYCLIC DERIVATIVES, COMPOSITIONS AND USES THEREOF” (Danatlas Pharmaceuticals Co., Ltd., priority 2022, published 2025)

How the values were obtained:
Kuramochi cell line = assay: Cell Viability Assay (Cell Titer-Glo, 7 days); type: cell-based; settings: 168 h, Kuramochi cells, 7 days incubation, read-out: PARG Cell viability (IC50)
Method: Cell viability studies were conducted in Kuramochi cell line. Cells were maintained in RPMI (Hyclone, Catalog #: SH3080901B) supplemented with 10% v/v FBS (AusGeneX, Catalog #: FBS500-S), 1% v/v Penicillin Streptomycin (Gibco, Catalog #: 15140122). Cells were seeded in 96-well plates (PerkinElmer, Catalog #: 6005680) at a density of 400 cells/well. Compounds dissolved in DMSO were plated in duplicate using a multichannel pipette, and tested on a 9-point 3-fold serial dilution. Cells were incubated for 7 days in a 37° C. active humidified incubator at 5% CO2. Cell viability was measured using the Cell Titer-Glo reagent (Promega, Catalog #: G7573) as manufacturer's instructions. Luminescence signal was measured with a multimode plate reader (Perkin Elmer, Envision 2105 or BMG, ClarioStar Plus). Average values of DMSO treated wells in a plate was calculated and as high control (HC). Average values of only medium in a plate was calculated and as low control (LC)
(§1) IC50 values were determined by fitting the data to the standard 4 parameters with Hill Slope using GraphPad Prism software.

[1] = biological target: hPARG (C-terminal His6-tag) (Homo sapiens (Human), UniProt Q86W56); assay: PARG Enzymatic Activity Assay (HTRF); type: biochemical; settings: hPARG 65 pM final, biotinylated-NAD ribosylated PARP1 8 nM final
Method: PARG Enzymatic Activity Assay HTRF assay was used to measure the ability of compounds to inhibit the activity of PARG in vitro. C-terminal His6-tag PARG expressed in E. coli was purified and stored at −80° C. in aliquots. Assay measurements were performed with 1×buffer comprising 50 mM Tris pH 7.4, 0.1 mg/mL BSA, 3 mM EDTA, 0.4 mM EGTA, 1 mM DTT, 50 mM KCl and 0.01% Tween 20.
Compounds dissolved in DMSO were plated into a 384-well assay plate (PerkinElmer, Catalog #: 6008280) in duplicate using a dispenser (Labcyte, Echo 665), and tested on a 10-point 4-fold serial dilution. Add 5 L Enzyme mix [hPARG (C-terminal His6-tag, 4.2 μM), 65 pM final] to the test wells. The plates were covered and left to incubate for 60 minutes at RT before the addition of 5 L substrate mix [biotinylated-NAD ribosylated PARP1 (6.1 μM), 8 nM final] to initiate reaction. After incubating 10 minutes at RT, add 2.5 L Streptavidin-Eu cryptate (Cisbio, Catalog #: 610SAKLA) and 2.5 L Mab anti 6HIS-XL665 (Cisbio, Catalog #: 61HISXLA) to the plate, and incubate for 60 minutes at RT. Read on a multimode plate reader (PerkinElmer, Envision 2015) in time-resolved fluorescence (TRF) mode, with excitation at 337 nm and emission at both 620 nm and 665 nm. Average HTRF signal of high control (Wells with 1% DMSO) was calculated and as Vehicle Control (VC). Average HTRF signal of low control (no Enzyme) was calculated and as Positive control (PC).
as §1

Sequence of hPARG (C-terminal His6-tag) (Q86W56 whole entry): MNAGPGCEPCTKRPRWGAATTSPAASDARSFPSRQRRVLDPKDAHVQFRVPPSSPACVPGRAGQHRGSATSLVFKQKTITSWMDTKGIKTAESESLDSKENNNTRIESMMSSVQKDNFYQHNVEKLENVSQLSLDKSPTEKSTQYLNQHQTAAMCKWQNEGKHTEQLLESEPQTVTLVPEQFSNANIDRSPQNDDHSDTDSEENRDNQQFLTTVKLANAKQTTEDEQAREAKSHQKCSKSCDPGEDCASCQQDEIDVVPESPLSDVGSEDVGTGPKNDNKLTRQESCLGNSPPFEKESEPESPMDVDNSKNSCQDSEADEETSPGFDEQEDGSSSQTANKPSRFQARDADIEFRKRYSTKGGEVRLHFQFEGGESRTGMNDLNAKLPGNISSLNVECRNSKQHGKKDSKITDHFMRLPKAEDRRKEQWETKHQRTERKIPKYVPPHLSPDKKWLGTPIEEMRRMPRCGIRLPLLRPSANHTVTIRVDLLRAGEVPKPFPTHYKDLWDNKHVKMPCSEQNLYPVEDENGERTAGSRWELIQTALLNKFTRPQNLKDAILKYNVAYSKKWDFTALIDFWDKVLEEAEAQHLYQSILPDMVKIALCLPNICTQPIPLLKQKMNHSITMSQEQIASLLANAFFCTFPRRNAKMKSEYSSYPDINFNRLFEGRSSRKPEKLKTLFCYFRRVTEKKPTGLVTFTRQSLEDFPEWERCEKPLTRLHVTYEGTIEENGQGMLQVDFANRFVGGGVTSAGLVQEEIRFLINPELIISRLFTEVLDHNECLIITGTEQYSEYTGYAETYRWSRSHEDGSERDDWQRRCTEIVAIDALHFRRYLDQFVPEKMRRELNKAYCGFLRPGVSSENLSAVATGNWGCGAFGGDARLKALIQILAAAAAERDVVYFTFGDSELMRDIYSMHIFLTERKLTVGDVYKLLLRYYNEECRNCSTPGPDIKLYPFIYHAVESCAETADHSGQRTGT

SMILES | IC50 [1] [nM] | IC50 (Kuramochi cell line) [nM]
CN(C)C(=O)N1CCN(c2ncnc3c2c2ccc(S(=O)(=O)NC4(C#N)CC4)cc2n3-c2nnc(C(F)F)s2)CC1 [Example 6, 4-(7-(N-(1-Cyanocyclopropyl)sulfamoyl)-9-(5-(difluoromethyl)-1,3,4-thiadiazol-2-yl)-9H-pyrimido[4,5-b]indol-4-yl)-N,N-dimethylpiperazine-1-carboxamide] | < 100 | < 100
C[C@@H]1CO[C@@H](C)CN1c1ncnc2c1c1ccc(S(=O)(=O)NC3(C#N)CC3)cc1n2-c1nnc(C(F)F)s1 [Example 200, N-(1-Cyanocyclopropyl)-9-(5-(difluoromethyl)-1,3,4-thiadiazol-2-yl)-4-((2S,5R)-2,5-dimethylmorpholino)-9H-pyrimido[4,5-b]indole-7-sulfonamide] | < 100 | < 100
N#CC1(NS(=O)(=O)c2ccc3c4c(N5CCN(C(=O)c6ccccn6)CC5)ncnc4n(-c4nnc(C(F)F)s4)c3c2)CC1 [Example 14, N-(1-Cyanocyclopropyl)-9-(5-(difluoromethyl)-1,3,4-thiadiazol-2-yl)-4-(4-picolinoylpiperazin-1-yl)-9H-pyrimido[4,5-b]indole-7-sulfonamide] |  | < 100
C[C@H]1CN(c2ncnc3c2c2ccc(S(=O)(=O)NC4(C#N)CC4)cc2n3-c2nnc(C(F)F)s2)CCO1 [Example 50, (S)-N-(1-Cyanocyclopropyl)-9-(5-(difluoromethyl)-1,3,4-thiadiazol-2-yl)-4-(2-methylmorpholino)-9H-pyrimido[4,5-b]indole-7-sulfonamide] | < 100 | < 100
CC(C)C(=O)N1C[C@H]2CC[C@@H]1CN2c1ncnc2c1c1ccc(S(=O)(=O)NC3(C#N)CC3)cc1n2-c1nnc(C(F)F)s1 [Example 32, N-(1-Cyanocyclopropyl)-9-(5-(difluoromethyl)-1,3,4-thiadiazol-2-yl)-4-((1R,4R)-5-isobutyryl-2,5-diazabicyclo[2.2.2]octan-2-yl)-9H-pyrimido[4,5-b]indole-7-sulfonamide] |  | 100 to 1000

Second part, led by results:

IC50 [1] [nM] | SMILES | IC50 (Kuramochi cell line) [nM]
< 100 | CO[C@H]1CCN(c2ncnc3c2c2ccc(S(=O)(=O)NC4(C#N)CC4)cc2n3-c2nnc(C(F)F)s2)C[C@@H]1F [Example 172, N-(1-cyanocyclopropyl)-9-(5-(difluoromethyl)-1,3,4-thiadiazol-2-yl)-4-((3S,4S)-3-fluoro-4-methoxypiperidin-1-yl)-9H-pyrimido[4,5-b]indole-7-sulfonamide] | < 100
< 100 | N#CC1(NS(=O)(=O)c2ccc3c4c(N5CCC6(CCCO6)CC5)ncnc4n(-c4nnc(C(F)F)s4)c3c2)CC1 [Example 182, N-(1-Cyanocyclopropyl)-9-(5-(difluoromethyl)-1,3,4-thiadiazol-2-yl)-4-(1-oxa-8-azaspiro[4.5]decan-8-yl)-9H-pyrimido[4,5-b]indole-7-sulfonamide] | < 100
< 100 | CN(C)C(=O)c1ccc(-c2ncnc3c2c2ccc(S(=O)(=O)NC4(C#N)CC4)cc2n3-c2nnc(C(F)F)s2)cn1 [Example 97, 5-(7-(N-(1-cyanocyclopropyl)sulfamoyl)-9-(5-(difluoromethyl)-1,3,4-thiadiazol-2-yl)-9H-pyrimido[4,5-b]indol-4-yl)-N,N-dimethylpicolinamide] | < 100
< 100 | CN1CCC[C@@H]1C(=O)N1CCC(c2ncnc3c2c2ccc(S(=O)(=O)NC4(C#N)CC4)cc2n3-c2nnc(C(F)F)s2)CC1 [Example 104, N-(1-Cyanocyclopropyl)-9-(5-(difluoromethyl)-1,3,4-thiadiazol-2-yl)-4-(1-(methyl-D-prolyl)piperidin-4-yl)-9H-pyrimido[4,5-b]indole-7-sulfonamide] | 100 to 1000
< 100 | CC(C)C(=O)N1CCN(c2ncnc3c2c2ccc(S(=O)(=O)NC4(C#N)CC4)cc2n3-c2nnc(C(F)F)s2)C[C@@H]1CO [Example 154, (R)—N-(1-Cyanocyclopropyl)-9-(5-(difluoromethyl)-1,3,4-thiadiazol-2-yl)-4-(3-(hydroxymethyl)-4-isobutyrylpiperazin-1-yl)-9H-pyrimido[4,5-b]indole-7-sulfonamide] | < 100
